From patent US5395824A, “Dipeptide derivative and prophylactic and therapeutic agent for bone diseases containing the same” (Suntory Limited, priority 1991, dated 1995)

How the values were obtained:
[1] = system: PTHrp(1-34)-Induced Hypercalcemia in Rats; assay: Effect on PTHrp(1-34)-induced hypercalcemia in rats (p.o.); assay type: in vivo; conditions: male Wistar rats, 40 mg/kg p.o.; PTHrp(1-34) 5 nmole/kg i.v. four hours later; blood sample 1 hour after PTHrp; n = 5; PTHrp-only control 10.84 ± 0.11
Method: Some of the compounds shown in Table 1 were orally administered to 5-week-old male Wistar rats weighing from […] to 110 g (5 animals per group) at a dose of 40 mg/kg body weight. Four hours later, 5 nmole/kg of PTHrp(1-34) was intravenously injected into the animals. One hour after the administration of PTHrp(1-34)sequence ID No. 1, a blood sample was collected from each rat, and the blood calcium concentration was determined by the octocresolphthalein complexone method.

[2] = system: PTHrp(1-34)-Induced Hypercalcemia in Rats; assay: Effect on PTHrp(1-34)-induced hypercalcemia in rats (i.p.); assay type: in vivo; conditions: male Wistar rats, 40 mg/kg i.p.; PTHrp(1-34) 5 nmole/kg i.v. two hours later; blood sample 1 hour after PTHrp; n = 5; PTHrp-only control 10.79 ± 0.13
Method: Some of the compounds shown in Table 1 were intraperitoneally administered to 5-week-old male Wistar rats each weighing 90 to 110 g (5 animals per group) at a dose of 40 mg/kg body weight. Two hours later, 5 nmole/kg of PTHrp(1-34) was intravenously injected. One hour after the administration of PTHrp(1-34), a blood sample was collected from each animal, and the blood calcium concentration was determined according to the same method as in Test Example 1.

SMILES | Ca Conc. ± S.E. (average blood calcium concentration) [1] | Ca Conc. ± S.E. (average blood calcium concentration) [2]
CCCCC(NC(=O)[C@H](CC(C)C)NC(C)=O)C1NCCS1 (stereo partly drawn) [Example 21, N-Acetyl-L-leucine-[1-(thiazolidine-2-yl)]pentylamide] | 9.98 ± 0.10 mg/dL | 9.96 ± 0.07 mg/dL
CCCCC(NC(=O)[C@H](CC(C)C)NC(=O)CCC)C(OC)OC (stereo partly drawn) [Example 26, N-Butyryl-L-leucine-(1-dimethoxymethyl)pentylamide] | 9.85 ± 0.08 mg/dL | 
CC(C)CC(C=O)NC(=O)[C@H](CC(C)C)NC(=O)OCc1ccccc1 (stereo partly drawn) [Example 33, N-Benzyloxycarbonyl-L-leucine-(1-formyl-3-methyl)butylamide] | 10.26 ± 0.13 mg/dL | 
CCCCC(NC(=O)[C@H](CC(C)C)NC(=O)OCc1ccccc1)C1OCCO1 (stereo partly shown) [Example 9] | 10.41 ± 0.08 mg/dL | 
CCCCC(NC(=O)[C@H](CC(C)C)NC(=O)CC)C(OC)OC (stereo partly drawn) [Example 25, N-Propionyl-L-leucine-(1-dimethoxymethyl)pentylamide] | 9.88 ± 0.09 mg/dL | 
CCCCC(NC(=O)[C@H](CC(C)C)NC(=O)OCc1ccccc1)C(OC)OC (stereo partly drawn) [Example 7, N-Benzyloxycarbonyl-L-leucine-(1-dimethoxymethyl)pentylamide] | 10.36 ± 0.11 mg/dL | 10.29 ± 0.14 mg/dL
CCCCC(NC(=O)[C@H](CC(C)C)NC(=O)OCc1ccccc1)C(OC(C)=O)OC(C)=O (stereo partly drawn) [Example 12, N-Benzyloxycarbonyl-L-leucine-(1-diacetoxymethyl)pentylamide] |  | 10.27 ± 0.08 mg/dL
CCCCC(NC(=O)[C@H](CC(C)C)NC(=O)CCl)C(OC)OC (stereo partly drawn) [Example 24, N-Chloroacetyl-L-leucine-(1-dimethoxymethyl)pentylamide] | 10.12 ± 0.09 mg/dL | 
CCCCC(NC(=O)[C@H](CC(C)C)NC(=O)C(C)C)C(OC)OC (stereo partly drawn) [Example 23, N-Isobutyryl-L-leucine-(1-dimethoxymethyl)pentylamide] | 9.83 ± 0.13 mg/dL | 
CCCCC(NC(=O)[C@H](CC(C)C)NC(C)=O)C(OC)OC (stereo partly drawn) [Example 16, N-Acetyl-L-leucine-(1-dimethoxymethyl)pentylamide] | 9.91 ± 0.13 mg/dL | 9.95 ± 0.14 mg/dL
CCCCC(NC(=O)[C@H](CC(C)C)NC(=O)OCc1ccccc1)C(=O)C(=O)OCC (stereo partly drawn) [Example 1, N-Benzyloxycarbonyl-L-leueine-(1-ethoxalyl)pentylamide] |  | 10.33 ± 0.12 mg/dL
CCCCC(NC(=O)[C@H](CC(C)C)NC(=O)C(F)(F)F)C(OC)OC (stereo partly drawn) [Example 27, N-Trifluoroacetyl-L-leucine-(1-dimethoxymethyl)pentylamide] | 9.91 ± 0.13 mg/dL | 
CCCCC(NC(=O)[C@H](CC(C)C)NC(=O)OCc1ccccc1)C1NCCS1 (stereo partly drawn) [Example 15, N-Benzyloxycarbonyl-L-leucine-[1-(thiazolidine-2-yl)]pentylamide] | 9.98 ± 0.13 mg/dL | 10.13 ± 0.21 mg/dL
CCCCC(NC(=O)[C@H](CC(C)C)NC(C)=O)C(OCC)OCC (stereo partly drawn) [Example 22, N-Acetyl-L-leucine-(1-diethoxymethyl)pentylamide] | 10.05 ± 0.13 mg/dL | 9.67 ± 0.18 mg/dL
CCCCC(NC(=O)[C@H](CC(C)C)NC(C)=O)C1OCCO1 (stereo partly drawn) [Example 17, N-Acetyl-L-leucine-[1-(1,3-dioxolan-2-yl)]pentylamide] | 9.97 ± 0.17 mg/dL | 10.16 ± 0.05 mg/dL
CCCCC(NC(=O)[C@H](CC(C)C)NC(=O)OCc1ccccc1)C1SCCS1 (stereo partly drawn) [Example 13, N-Benzyloxycarbonyl-L-leucine-[1-(1,3-dithiolan-2-yl)]pentylamide] |  | 10.23 ± 0.05 mg/dL
